Patent publication US9981043B2, “Analgesic conjugates” (priority 2013, dated 2018)
Entries after “also recorded” stand apart in the source; their conditions may differ.

Legend:
[1] = system: control mice; experiment: Radiant tail flick antinociception, control (not pretreated) mice; assay type: in vivo; conditions: controls; for ED50 (CI) i.c.v. / ED50 (CI) i.t.: tail flick
Experimental: (§1) Compounds were dissolved in 10% DMSO and then diluted to less than 1% DMSO in the test solutions. […] Compounds were administered in a 5-μl volume in conscious mice, either i.c.v. (Haley T J & McCormick W G, Br J Pharmacol Chemother, 1957, 12(1), 12-15) or i.t. (Hylden J L K & Wilcox G L, Eur. J. Pharmacol., 1980, 67(2-3), 313-316). Peak times were determined by comparing the percent maximal possible effect (% MPE) at 5, 10, 20 and 60 minutes after injection.
(§2) The tail flick assay is used first to test for antinociception as described by D'Amour and Smith (D'AMOUR FE & SMITH DL (1941) J. Pharmacol. Exp. Ther. 72(1):74-79) and modified by Dewey et al. (Dewey W L, Harris L S, Howes J F, & Nuite JA (1970) J. Pharmacol. Exp. Ther. 175(2):435-442). For the measurement of the tail-flick latency, mice are wrapped in a light cloth and held gently in one hand with the tail positioned in the apparatus (Tail Flick Analgesia Meter, Columbus Instruments, Columbus, Ohio) for radiant heat stimulus. The tail-flick response is elicited by applying radiant heat to the dorsal side of the tail. The intensity of the heat is set so that the mouse flicks its tail within 2 to 3 seconds. The test latency is measured before drug treatment (control) and again after the drug treatment (test) at the peak time of the compound; a 10 second maximum cut-off time is used to prevent damage to the tail. Antinociception is quantified according to the Harris L S & Pierson A K, J. Pharmacol. Exp. Ther., 1964, 143(2):141-148, as the percent maximal possible effect (% MPE), which is calculated as: % MPE=(Test−Control/10−Control)×100.
(§3) At least three groups of four to ten mice are used for each dose response curve. ED50 values with 95% confidence intervals (C.I.) are computed with GraphPad Prism 4 by using nonlinear regression methods.

[2] = system: LPS pretreated mice; experiment: Radiant tail flick antinociception, LPS pretreated mice; assay type: in vivo; conditions: for % MPE / dose range of antinociception: LPS pretreated; for ED50 (CI) i.t. / ED50 (CI) i.c.v.: LPS pretreated (1 mg/kg 24 hours i.p.)
Experimental: as §1
The first group mice were pretreated with lipopolysaccaride (LPS, 1 mg/kg, i.p. from Escherichia coli 0111:B4; Sigma-Aldrich, St. Louis, Mo.) for 24 hours before testing for antinociception of compounds 2-6 (Seo Y-J, et al., Pharmacol., Biochem. Behav., 2008, 91, 121-127). This group was compared to a group without pretreatment.
as §2, §3

[3] = system: control mice; experiment: Acute (24 hour) tolerance, tail flick, control mice; assay type: in vivo; conditions: controls
Experimental: (§4) Acute tolerance utilizing the radiant tail flick assay was measured by comparing the ED80-90 dose on day 1 to the same dose measured 24 hours later on the same mouse. For the LPS pretreated mice, no additional LPS was given to the mice for the acute tolerance test. […] However, the effect was less robust 72 hours after the initial LPS injection. Thus confirming that the acute tolerance test was accurate for the LPS pretreated mice.

[4] = system: LPS pretreated mice; experiment: Acute (24 hour) tolerance, tail flick, LPS pretreated mice; assay type: in vivo; conditions: 24 hours
Experimental: as §4

[5] = system: C3H mice with bone cancer; experiment: von Frey mechanical hyperalgesia, bone cancer (fibrosarcoma) mice; assay type: in vivo; conditions: bone cancer, 250 pmol/mouse, day 3
Experimental: The mouse hind paw model of bone cancer was the third model of pain (Wacnik P W, et al., Pain Research & Management, 2000, 16, 615-637; and Wacnik P W, et al., J Neurosci, 2001, 21(23), 9355-9366). Cell Culture: National Collection of Type Cultures (NCTC) clone 2472 fibrosarcoma cells, originally derived from a connective tissue tumor in a C3H mouse, were obtained from the American Type Cell Culture Collection (Rockville, Md.). Cells were grown and maintained in accordance with standard cell culturing techniques. NCTC cells were grown to 80-90% confluence in 75 cm^2 flasks (Corning, Lowell, Mass.) in Dulbecco's Modification of Eagles Medium (Invitrogen, Carlsbad, Calif.) fortified with 10% Horse Serum and sodium bicarbonate. Cell cultures were housed in a water-jacketed incubator with 5% carbon dioxide at 37° C.
Cells were prepared for implantation by first pouring off the culture medium and washing with phosphate-buffered saline (PBS). Trypsin was added to flask and placed in incubator for 3 minutes. Upon detachment, cells were suspended in an ample amount of culture medium to terminate enzymatic activity and centrifuged for 10 min at 1000 g. Fibrosarcoma cells were re-suspended in a known amount of PBS for counting, quantified on a hemacytometer, pelleted and re-suspended in PBS. Fibrosarcoma cells were again re-suspended to a final concentration of 2×10^5 cells in 20 μl. Initially, animals were anesthetized in a plexi-glass chamber using 3% isoflurane in 3 L/min oxygen. Once each mouse was completely anesthetized, a maintenance rate of 2% isoflurane in 1.5 L/min oxygen was maintained during the short implantation procedure. Tumor cells were manually injected by boring into the calcaneus bone using a 29½ gauge needle connected to a sterile 0.3 ml insulin syringe as previously described (19). Following injection, mice were allowed to recover in cages on a heating pad. Animals showing any signs of dysfunction (e.g. problems with ambulation, lethargy or excessive bleeding) or distress where euthanized according to CO2 guidelines.
C3H mice were was placed under a clean glass cup on a wire mesh grid and allowed to acclimate for thirty minutes. Mechanical hypersensitivity was tested using a von Frey filament #3.61 (which produces a force of […]) to the plantar surface of both the left and right hind paw with enough force to cause it to bow slightly. Starting with the right hind paw, the number of positive responses out of a total of 10 applications was recorded followed by the left hind paw. Positive response was indicated by a sharp withdrawal or flinching behavior of the paw. Baseline von Frey measurements were obtained prior to treatment with CFA, tumor and saline controls. […] Subsequent measurements were taken at various time points after intrathecal (i.t.) injection of test compounds on days 3, 7, 10, 14, 17, and 21. % MPE was calculated ((Time-point value−Day# baseline)/(Day 0 baseline−day# baseline))*100 (Smeester B A, Al-Gizawiy M, & Beitz A J (2012) Evidence-Based Complementary and Alternative Medicine 2012:16). Animals with saline injection served as controls for tumor cell implantation and tumor-induced nociception. Behavioral assessments were conducted during the light cycle at approximately the same time each day. The investigator performing the von Frey testing was blinded to the animal and compound injected.
A well-established rodent hind paw model of bone cancer pain (Wacnik P W, et al., J Neurosci. 2001, 21(23), 9355-66) was to examine the effects of representative bivalent ligands on tumor-induced nociception. The inbred C3H/He line is syngeneic to the fibrosarcoma cells used in these experiments and allows these cells to grow tumors without rejection. Male C3H mice were used for all experiments. Animals were maintained on a 12 hour light/dark cycle with food and water ad libitum.
Cells were prepared for implantation by first pouring off the culture medium and washing with phosphate-buffered saline (PBS). […]

[6] = system: C3H/HeNCrlVr mice; conditions: intrathecal; spontaneous pain, mechanical allodynia, thermal hyperalgesia; cited from earlier work
[7] = system: live mice; experiment: Respiratory depression (Mouse Ox O2 saturation); assay type: in vivo; conditions: i.t.; dose 100 times the ED90
Experimental: Respiratory depression was measured in live mice using the Mouse Ox (small animal Oximeter from STARR Life Sciences Corp, Oakmont, Pa.). CollarClip™—(Un-Anesthetized Neck Sensor) for mice was used as the site for measuring the data. Day one of each experiment involved training the animals using a disposable CollarClip™. The collar was left on for approximately one hour. […] Mice were monitored for a 60-minute period, with measurements 10-20-30 and 60 minutes.
Respiratory depression was measured in live mice using the Mouse Ox (small animal Oximeter from STARR Life Sciences Corp, Oakmont, Pa.). CollarClip™ (Un-Anesthetized Neck Sensor) for mice was used as the site for measuring the data.
Day one of each experiment involved training the animals using a disposable CollarClip™. The collar was left on for approximately one hour.
Mice were monitored for a 60-minute period, with measurements 10-20-30 and 60 minutes.

| SMILES | ED50 (CI) i.c.v. ([1]; i.c.v.) [pmol/mouse] | ED50 (CI) i.t. ([1]; i.t.) [pmol/mouse] | ED50 (CI) i.t. ([2]; i.t.) [pmol/mouse] | dose range of antinociception ([2]; i.t.) | Tolerance ([3]; i.c.v.) | Tolerance ([3]; i.t.) | Tolerance ([4]; i.t.) | ED50 (CI) i.c.v. ([2]; i.c.v.) [pmol/mouse] | also measured |
| --- | --- | --- | --- | --- | --- | --- | --- | --- | --- |
| COc1cccc(C#Cc2cccc(C)n2)c1 [Compound 2, 2-((3-methoxyphenyl)ethynyl)-6-methylpyridine, reference compound] |  |  |  |  |  |  |  |  | % MPE ([1]; i.c.v., 250 pmol/mouse): 14.59 ± 4.63% MPE; % MPE ([1]; i.t., 250 pmol/mouse): 13.27 ± 3.39% MPE; % MPE ([2]; i.t., 250 pmol/mouse): 21.96 ± 10.50% MPE |
| Cc1cccc(C#Cc2cccc(OCCNC(=O)COCC(=O)N[C@H]3CC[C@@]4(O)C5Cc6ccc(O)c7c6[C@@]4(CCN5C)[C@H]3O7)c2)n1 [Compound 3, N-((4aS,7S,7aR,12bS)-4a,9-dihydroxy-3-methyl-2,3,4,4a,5,6,7,7a-octahydro-1H-4,12-methanobenzofuro[3,2-e]isoquinolin-7-yl)-2-(2-((2-(3-((6-methylpyridin-2-yl)ethynyl)phenoxy)ethyl)amino)-2-oxoethoxy)acetamide] | 529.6 | 114.7 | 8.17 | nmol range | Tolerance | No Tolerance | Tolerance was also observed; also recorded: exhibited tolerance |  | % MPE ([2]; i.c.v., 500 pmol/mouse): 56.86 ± 8.95% MPE |
| Cc1cccc(C#Cc2cccc(OCCNC(=O)COCC(=O)NCCNC(=O)COCC(=O)N[C@H]3CC[C@@]4(O)C5Cc6ccc(O)c7c6[C@@]4(CCN5C)[C@H]3O7)c2)n1 [Compound 4a, N-((4aS,7S,7aR,12bS)-4a,9-dihydroxy-3-methyl-2,3,4,4a,5,6,7,7a-octahydro-1H-4,12-methanobenzofuro[3,2-e]isoquinolin-7-yl)-2-((14-(3-((6-methylpyridin-2-yl)ethynyl)phenoxy)-2,7,11-trioxo-9-oxa-3,6,12-triazatetradecyl)oxy)acetamide] | 119.50 | 34.31 | 20.57 | nmol range | Tolerance | Tolerance | created tolerance; also recorded: exhibited tolerance | 80.85 | Tolerance ([4]; i.c.v.): Tolerance |
| Cc1cccc(C#Cc2cccc(OCCNC(=O)COCC(=O)NCCCNC(=O)COCC(=O)N[C@H]3CC[C@@]4(O)C5Cc6ccc(O)c7c6[C@@]4(CCN5C)[C@H]3O7)c2)n1 [Compound 4b, N-((4aS,7S,7aR,12bS)-4a,9-dihydroxy-3-methyl-2,3,4,4a,5,6,7,7a-octahydro-1H-4,12-methanobenzofuro[3,2-e]isoquinolin-7-yl)-2-((1-(3-((6-methylpyridin-2-yl)ethynyl)phenoxy)-4,8,14-trioxo-6-oxa-3,9,13-triazapentadecan-15-yl)oxy)acetamide] | 113.3 | 36.08 | 10.08 | nmol range | No Tolerance | No Tolerance | devoid of tolerance; also recorded: No Tolerance | 64.36 | Tolerance ([4]; i.c.v.): No Tolerance |
| Cc1cccc(C#Cc2cccc(OCCNC(=O)COCC(=O)NCCCCCCCNC(=O)COCC(=O)N[C@H]3CC[C@@]4(O)C5Cc6ccc(O)c7c6[C@@]4(CCN5C)[C@H]3O7)c2)n1 [Compound 4d, N-((4aS,7S,7aR,12bS)-4a,9-dihydroxy-3-methyl-2,3,4,4a,5,6,7,7a-octahydro-1H-4,12-methanobenzofuro[3,2-e]isoquinolin-7-yl)-2-((1-(3-((6-methylpyridin-2-yl)ethynyl)phenoxy)-4,8,18-trioxo-6-oxa-3,9,17-triazanonadecan-19-yl)oxy)acetamide] |  | 132.7 |  | nmol range |  | No tolerance | devoid of tolerance; also recorded: No tolerance | 411.9 | % MPE ([1]; i.c.v., 1000 pmol): 53.76 ± 16.36% MPE |
| CNC(=O)COCC(=O)NCCCNC(=O)COCC(=O)NCCOc1cccc(C#Cc2cccc(C)n2)c1 [Compound 6, N-methyl-2-(1-(3-((6-methylpyridin-2-yl)ethynyl)phenoxy)-4,8,14-trioxo-6-oxa-3,9,13-triazapentadecan-15-yloxy)acetamide] |  |  | 548.7 |  |  |  | No tolerance |  | % MPE ([1]; i.c.v., 250 pmol/mouse): 24.87 ± 11.77% MPE; % MPE ([1]; i.t., 2500 pmol/mouse): 26.13 ± 7.27% MPE; % MPE ([2]; i.c.v., 2500 pmol/mouse): 38.83 ± 11.59% MPE; % MPE [5]: 17.59±18.24 % MPE |
| Cc1cccc(C#Cc2ccccc2)n1 [MPEP] |  |  |  |  |  |  |  |  | effect on bone cancer-evoked pain [6]: attenuated bone cancer-evoked spontaneous pain |
| CN1CC[C@]23c4c5ccc(O)c4O[C@H]2[C@@H](O)C=C[C@H]3[C@H]1C5 [Morphine, reference compound] |  |  |  |  |  |  |  |  | % of mice with O2 Saturation less than 90% [7]: 50% |
